{"source": "paper PMC12339982", "about": "(Nature Communications, 2025)", "key": {"[1]": {"target": "T1, human wild type TauT (TauT^WT) (Homo sapiens, UniProt P31641)", "T1 sequence (P31641 1-620)": "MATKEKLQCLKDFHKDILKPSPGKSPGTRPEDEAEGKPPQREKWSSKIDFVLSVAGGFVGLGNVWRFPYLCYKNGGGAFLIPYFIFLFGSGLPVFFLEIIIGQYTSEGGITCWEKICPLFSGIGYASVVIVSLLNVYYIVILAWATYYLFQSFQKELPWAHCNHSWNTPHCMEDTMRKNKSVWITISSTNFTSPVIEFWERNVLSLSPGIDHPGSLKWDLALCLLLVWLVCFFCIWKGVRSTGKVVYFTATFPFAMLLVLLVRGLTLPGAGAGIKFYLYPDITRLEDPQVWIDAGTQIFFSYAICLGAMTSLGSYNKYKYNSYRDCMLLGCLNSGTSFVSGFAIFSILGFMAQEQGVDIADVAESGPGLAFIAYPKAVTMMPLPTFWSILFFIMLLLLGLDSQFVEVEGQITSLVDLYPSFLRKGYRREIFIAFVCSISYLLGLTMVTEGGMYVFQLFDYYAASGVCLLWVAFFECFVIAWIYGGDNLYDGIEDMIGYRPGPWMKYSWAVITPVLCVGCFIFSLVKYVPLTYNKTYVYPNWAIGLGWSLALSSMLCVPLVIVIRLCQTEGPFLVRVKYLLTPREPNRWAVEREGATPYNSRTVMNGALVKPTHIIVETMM", "experiment": "[3H]taurine uptake inhibition assay in HEK293T cells overexpressing TauT^WT", "assay_type": "cell-based", "conditions": "for inhibition of the uptake activity of TauT: result in words"}, "hGAT1": {"tested_on": "hGAT1", "conditions": "previous studies; cited from earlier work"}}}
{"compound": "O=C(O)Cc1c[nH]cn1", "note": "[I4AA, imidazole-4-acetic acid]", "values": [{"measurement": "inhibition of the uptake activity of TauT", "setting": "[1]", "value": "concentration-dependently inhibited"}]}
{"compound": "O=S(=O)(O)C1CCNCC1", "note": "[P4S, piperidine-4-sulfonic acid]", "values": [{"measurement": "inhibition of the uptake activity of TauT", "setting": "[1]", "value": "concentration-dependently inhibited"}]}
{"compound": "NCCCS(=O)(=O)O", "note": "[Htau, homotaurine]", "values": [{"measurement": "IC50", "setting": "[1]", "value": "770 ± 160", "unit": "µM"}, {"measurement": "inhibition of the uptake activity of TauT", "setting": "[1]", "value": "concentration-dependently inhibited"}]}
{"compound": "O=C(O)C1CCCNC1", "note": "(stereo not shown) [nipecotic acid]", "values": [{"measurement": "inhibition of the uptake activity of TauT", "setting": "[1]", "value": "concentration-dependently inhibited"}, {"measurement": "IC50 for hGAT1 compared with hTauT", "setting": "hGAT1", "value": "lower IC50 value for hGAT1 than for hTauT"}]}
{"compound": "NCCCCC(=O)O", "note": "[5AVA, 5-aminovaleric acid]", "values": [{"measurement": "inhibition of the uptake activity of TauT", "setting": "[1]", "value": "concentration-dependently inhibited"}]}
